Values after ≈ are worked out from the molar mass of the structure shown. Like-named read-outs stand apart in the source and are kept apart here.
Assays:
[1] = tested on: Mycobacterium tuberculosis (Mtb) H37Rv ATCC 27294; test: microbe, parasite or virus in culture; format: cell-based; details: Mycobacterium tuberculosis, read-out: Mtb MIC
[2] = tested on: hypoxia induced non-replicating persistent (NRP) Mtb cells; test: Activity against hypoxia induced non-replicating persistent (NRP) Mtb (HBC, Wayne model); format: cell-based, Mycobacterium tuberculosis
[3] = tested on: A549 human lung carcinoma cells; format: cell-based; details: human, 72 h
Procedure: The in vitro cytotoxicity of compounds were measured against A549 human lung carcinoma cells as describedin Eakin et. al (2012). Briefly, A549 cells (ATCC) were grown in RPMI medium (GIBCO-BRL) containing 10% heat-inactivated fetal bovine serum (GIBCO-BRL) and 1 mM L-glutamine (GIBCO-BRL) at a density of 1,000 cells/well. After incubation of the cells with compound in a CO2 atmosphere at 37° C. for 72 hours, cell viability was determined following addition of […] of resazurin solution (Sigma), by measuring fluorescence (excitation at 535 nm, emission at 590 nm) using a fluorimeter.

[4] = format: in vitro ADME; details: pH 7.4
Procedure: 1 μM compound was incubated with 1 mg/mL of microsomes (Pooled HLM/MLM with 20 mg/ml protein cone.) at 37° C. in 166 μL of buffer (100 mM phosphate buffer, pH-7.4) containing 2 mM NADPH solution. […] The quench plate was centrifuged at 4000 rpm for 15 min. 30 μL of supernatant was diluted to 300 μL with 50% acetonitrile in water and substrate depletion was analyzed using LC-MS/MS.

[5] = 1 μM
Procedure: Viability of cryopreserved hepatocytes was determined using trypan blue and the cell conc. was adjusted to 10^6 cells per mL with buffer (KHB buffer). 1 μM compound (in Acetonitrile; 0.01% DMSO) was incubated with 500 μL of hepatocyte cells (1 million cells per mL) in a NUNC plate. […] Supernatants were analyzed using LC-MS/MS for substrate depletion.

in vivo [6] = details: Wistar, rat, in vivo
Procedure: PK of azaindoles compounds was performed in mice (healthy and infected) and rats. Mice were pretreated with 100 mg/kg ABT two hours prior to the compound administration. PK data from healthy mice was used to design the dosing regimen for the efficacy study while, information from infected mice was used for the PK-PD analysis.
All oral administration was performed as suspensions in 0.5% HPMC, and 0.1% Tween 80. […] All blood samples were collected via sapheneous vein into Microvette CB300® (Starstedt, Germany) tubes coated with Lithium-Heparin, and plasma was prepared from the collected blood by centrifugation.
(§1) One mg/mL stock solution of each compound was prepared in Dimethylsulfoxide (DMSO) and diluted two-fold with acetonitrile. A sixteen point calibration curve was utilized for each analyte, and the standard curves ranged from 0.001 to 40 μg/mL. Plasma/BAL samples were precipitated by adding chilled acetonitrile (1:10 v/v) containing carbamazepine as internal standard (250 ng/mL). Samples were vortexed, and centrifuged at 4000 rpm for 30 min at 10° C. The resulting supernatant was mixed with mobile phase (50% acetonitrile in water with 0.1% formic acid). […] of sample was injected on to a liquid chromatographic system (Waters-ACQUTY UPLC) coupled to triple quadrupole mass spectrometer (Waters-ACQUTY-TQD; MS/MS). Samples were acquired in positive ion mode and detected by multiple reaction monitoring (MRM). Concentrations of the analyte were determined from a standard curve obtained by plotting known concentrations of the analyte against peak area ratios (analyte/internal standard peak response).
PK analysis of the plasma concentration-time relationships were performed with WinNonlin Phoenix Software (version 6.2; Pharsight, USA). […] The maximum concentration of drug in plasma (Cmax), time to Cmax (Tmax), elimination half-life (t1/2), and AUC from time zero to infinity (AUC0-∞) were estimated. […] Minimum of three sample points in the terminal slope were used to estimate to calculate half-life.

in vivo [7] = details: BALB/c, mouse, 100 mg/kg; for AUC(0-inf) / Cmax: po; for AUC(0-inf): AUC0-∞
Procedure: ELF PK was performed in healthy mice (three mice/group) as described previously (Solapure et. al, 2013) after administration of a single oral dose of 100 mg/kg compound formulated in 0.5% HPMC, and 0.1% Tween 80 suspensions. […] Broncho-Alveolar Lavage (BAL) was performed after tracheotomy using 0.7 mL of ice-cold PBS. Urea estimation kit, DIUR-500 (Bio-assay Systems, U.S.A) was used for urea estimation in plasma and BAL samples. Volume of ELF was calculated after normalizing the urea concentration in BAL with that of plasma as described in Marry et. al, 2011. Plasma and BAL samples were stored at −20° C. until analysis using LC-MS/MS.
as §1
Volume of ELF in the BAL samples was calculated as volume of BAL multiplied by the ratio of urea concentrations in BAL and plasma as described (Solapure et. al, 2013; Marry et. al, 2011) The compound concentration in ELF was calculated by multiplying concentration in BAL samples by the ratio of BAL volume to the ELF volume. AUC0-∞ in plasma and ELF were calculated by Non-compartmental analysis WinNonlin Phoenix Software (version 6.2; Pharsight, USA). Free plasma AUC was calculated after multiplying concentrations at each time point by the free fraction in plasma. Lung ELF penetration ratio was calculated as a ratio of AUC0-∞ in ELF to free AUC0-∞ in free plasma/total plasma during the same time interval. This ratio, measured in healthy mice after single dose administration, was assumed to remain constant during multiple dose efficacy study in the infected mice. Sparse sample analysis in WinNonlin was used for estimating standard error (SE) associated with AUC estimate.

[8] = pH 7.4
Procedure: Octanol-water partition coefficient (Log D) based on the shake-flask principle has been measured as follows. The aqueous solution used was 10 mM sodium phosphate buffer pH 7.4. 20 μL of 10 mM compound dissolved in DMSO was taken in glass vial plate. DMSO was removed using GeneVac. 435 μL of octanol was added using Tomtec, stirred for 5 min to dissolve. Further mixing was done by inversion for 5 h at 25° C., subsequently centrifuged for 30 min at 3000 RPM. LC/UV/APPI/MS quantitation of both aqueous and octanol layers was carried out. Log D value was determined according to the following equation.

in vivo [9] = details: BALB/c, mouse, po, 50 mg/kg

COc1ncnc(Cn2cc(C(=O)NCCF)c3ncccc32)c1C [Compound 3, N-(2-fluoroethyl)-1-((6-methoxy-5-methylpyrimidin-4-yl)methyl)-1H-pyrrolo[3,2-b]pyridine-3-carboxamide]
MIC ([1]; Table 1): 1.56 µM (≈ 0.536 µg/mL)
MIC ([1]; Table 4): 1.56 to 3.12 µM (≈ 0.536 to 1.07 µg/mL)
activity against non-replicating Mtb under hypoxic conditions ([2]; cidality measured as HBC in Wayne model): moderate activity
Mtb HBC ([2]; hypoxic conditions, Wayne model, Table 4): 50 µM
MMIC (A549) [3]: >100 µM
Human CLpred microsomes (% LBF) [4]: 10.4 % LBF
Human CLpred hepatocytes (% LBF) [5]: 6.0 % LBF
Rat CLpred hepatocytes (% LBF) [5]: 13 % LBF
AUC(0-t) (in vivo [6]; iv, 0.5 mg/kg): 1.6 ± 0.29 µM·h
C0h (in vivo [6]; iv, 0.5 mg/kg): 1.76 ± 0.42 µM
Vd (in vivo [6]; iv, 0.5 mg/kg): 1.05 ± 0.28 L/kg
clearance (in vivo [6]; iv, 0.5 mg/kg): 0.93 ± 0.193 L/h/kg
half-life (in vivo [6]; iv, 0.5 mg/kg): 2.22 ± 2.51 h
AUC(0-inf) (in vivo [6]; po, 30 mg/kg): 101 µM·h
Cmax (in vivo [6]; po, 30 mg/kg): 15 µM
F (in vivo [6]; po, 30 mg/kg): 96%
Tmax (in vivo [6]; po, 30 mg/kg): 2 h
half-life (in vivo [6]; po, 30 mg/kg): 2.01 h
Kp (in vivo [7]; ELF penetration ratio (based on free plasma AUC)): 7.29 to 26.1
Kp (in vivo [7]; ELF penetration ratio (based on total plasma AUC)): 0.6 to 1.97
AUC(0-inf) (in vivo [7]; ELF): 713 ± 176 µM·h
AUC(0-inf) (in vivo [7]; Plasma): 573 ± 78.8 µM·h
AUC(0-inf) (in vivo [7]; fPlasma): 43.5 ± 5.96 µM·h
Cmax (in vivo [7]; ELF): 74 ± 3.77 µM
Cmax (in vivo [7]; Plasma): 63.8 ± 7.37 µM
Cmax (in vivo [7]; fPlasma): 4.85 ± 0.56 µM
logD [8]: 2.1
AUC(0-inf) (in vivo [9]): 106 ± 3.04 µM·h
Cmax (in vivo [9]): 17.8 ± 5.61 µM
Tmax (in vivo [9]): 4.33 ± 1.15 h
half-life (in vivo [9]): 2.38 ± 0.19 h
